In patent US4570006A, “Amidine compound, process for producing same and anti-complement agent comprising same” (Torii & Co. Ltd., priority 1981, dated 1986):

Assays:
Trypsin = molecular target: T1, Trypsin (Bos taurus, UniProt P00760); assay: Anti-trypsin activity (inhibition of TAME hydrolysis); format: biochemical; settings: read-out: ID50, trypsin
T1 sequence (P00760 24-246): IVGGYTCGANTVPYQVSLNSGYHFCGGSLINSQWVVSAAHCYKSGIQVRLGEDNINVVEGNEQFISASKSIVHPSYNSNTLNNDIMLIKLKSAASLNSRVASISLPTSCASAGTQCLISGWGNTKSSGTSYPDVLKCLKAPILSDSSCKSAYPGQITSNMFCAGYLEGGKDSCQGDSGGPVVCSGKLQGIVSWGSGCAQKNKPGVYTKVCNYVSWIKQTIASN
In short: (§1)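 Inhibition of enzymatic TAME (tosylarginine methyl ester) hydrolysis, per Muramatsu et al. Values are ID50, the molar concentration of compound inhibiting 50% of each enzyme's TAME-hydrolysing activity.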

Plasmin = Plasmin (Homo sapiens, UniProt P00747); assay: Anti-plasmin activity (inhibition of TAME hydrolysis); format: biochemical; settings: read-out: ID50, plasmin
In short: as §1

Kallikrein = assay: Anti-kallikrein activity (inhibition of TAME hydrolysis); format: biochemical; settings: read-out: ID50, kallikrein
In short: as §1

Thrombin = Thrombin (Homo sapiens, UniProt P00734); assay: biochemical; settings: TAME hydrolysis; read-out: ID50, thrombin
Clr = molecular target: T2, Clr (Homo sapiens, UniProt P00736); assay: Anti-Cl esterase activity, Clr (AAME hydrolysis); format: biochemical; settings: hydrolysis of AAME; read-out: Anti-Cl activity, Clr (ID50)
T2 sequence (P00736 464-705 limits assumed): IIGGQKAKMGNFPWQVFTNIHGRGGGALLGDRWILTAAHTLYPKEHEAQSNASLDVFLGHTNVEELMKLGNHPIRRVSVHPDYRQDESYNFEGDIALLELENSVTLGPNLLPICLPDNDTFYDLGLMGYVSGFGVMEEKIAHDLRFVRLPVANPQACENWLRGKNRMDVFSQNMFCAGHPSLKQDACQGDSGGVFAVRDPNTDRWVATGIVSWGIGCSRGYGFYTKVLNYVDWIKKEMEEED
T2 sequence (P00736 18-463 limits assumed): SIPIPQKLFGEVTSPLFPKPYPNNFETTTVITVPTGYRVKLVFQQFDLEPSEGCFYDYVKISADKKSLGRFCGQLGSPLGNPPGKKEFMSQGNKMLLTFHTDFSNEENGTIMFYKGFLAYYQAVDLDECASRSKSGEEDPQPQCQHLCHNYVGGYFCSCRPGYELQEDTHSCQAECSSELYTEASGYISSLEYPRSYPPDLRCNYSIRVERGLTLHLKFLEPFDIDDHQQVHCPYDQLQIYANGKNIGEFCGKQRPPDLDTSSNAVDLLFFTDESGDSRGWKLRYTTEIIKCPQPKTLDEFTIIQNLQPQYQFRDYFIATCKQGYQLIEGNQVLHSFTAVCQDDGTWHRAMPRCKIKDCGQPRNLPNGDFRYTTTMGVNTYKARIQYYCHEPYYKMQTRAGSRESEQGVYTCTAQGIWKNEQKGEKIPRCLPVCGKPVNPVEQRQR
Description: The anti-Cl esterase ([…]) activity was determined according to the method of Okamura et al. [K. Okamura, M. Muramatsu and B. Fujii, Biochem. Biophys.

Cls = molecular target: T3, Cls (Homo sapiens, UniProt P09871); assay: Anti-Cl esterase activity, Cls (ATEE hydrolysis); format: biochemical; settings: hydrolysis of ATEE; read-out: Anti-Cl activity, Cls (50% inhibition)
T3 sequence (P09871 438-688 limits assumed): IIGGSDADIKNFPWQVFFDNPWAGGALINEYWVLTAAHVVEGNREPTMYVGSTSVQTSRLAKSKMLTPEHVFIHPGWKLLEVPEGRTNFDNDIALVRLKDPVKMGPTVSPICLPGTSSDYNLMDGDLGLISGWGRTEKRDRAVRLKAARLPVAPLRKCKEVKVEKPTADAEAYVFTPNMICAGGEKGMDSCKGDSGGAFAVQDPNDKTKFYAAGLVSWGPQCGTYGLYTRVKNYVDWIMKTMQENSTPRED
T3 sequence (P09871 16-437 limits assumed): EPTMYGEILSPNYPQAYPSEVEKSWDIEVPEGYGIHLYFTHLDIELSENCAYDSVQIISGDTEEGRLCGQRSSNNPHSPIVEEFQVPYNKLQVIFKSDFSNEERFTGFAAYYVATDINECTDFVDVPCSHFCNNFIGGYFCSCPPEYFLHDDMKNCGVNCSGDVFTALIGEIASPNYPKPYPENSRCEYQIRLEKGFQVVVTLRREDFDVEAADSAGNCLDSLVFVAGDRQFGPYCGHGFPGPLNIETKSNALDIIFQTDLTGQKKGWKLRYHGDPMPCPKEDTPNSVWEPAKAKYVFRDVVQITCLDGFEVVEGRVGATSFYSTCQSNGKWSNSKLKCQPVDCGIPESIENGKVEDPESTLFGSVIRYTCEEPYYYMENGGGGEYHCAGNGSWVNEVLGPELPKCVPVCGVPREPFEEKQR
Description: The anti-Cl esterase (Clr, Cls) activity was determined according to the method of Okamura et al. [K. Okamura, M. Muramatsu and B. Fujii, Biochem. Biophys. […] The figures in Table 2 have the following meanings:
Cls: Molar concentration of the test compound which inhibits 50% of the ability of Cls to hydrolyse ATEE (acetyltyrosin ethyl ester).

complement = assay: Inhibition of complement mediated hemolysis; format: cell-based
[1] = Toxicity, median lethal dose (LD50); settings: in vivo
Masugi nephritis = assay: Therapeutic experiment on Masugi's nephritis (protein content of urine); format: in vivo; settings: rats; for Percentage inhibition (decrease in protein content of urine): methanesulfonate, oral 100 mg/kg twice a day, eight days
Source text: The protein content of the animal's urine is used as the parameter for the progress of Masugi nephritis. […] From the result, it may be said that the compound of this invention having a Cl-esterase inhibitory activity is useful as a remedy for the glomerulonephritis and is also useful as a remedy for autoimmune diseases inclusive of glomerulonephritis.
Experimental nephritis were induced in rats by intravenous injection of nephrotoxin prepared according to the method of Shibata et al. ["Experimental Immunoallergy.", p. 664 (1971), Bunkodo, Tokyo]. Each member of the medicine administered group had been orally administered with methanesulfonate of Compound No. 69 at a dose rate of 100 mg/kg body weight, twice a day, for eight consecutive days. On the second day from the beginning of medicine administration, nephrotoxin was intravenously administered. The effectiveness was evaluated by determining the difference in protein content of urine between the nephritic group (control group) and the medicine administered group on the 6th day (5th day after the administration of nephrotoxin) and 9th day from the beginning of medicine administration.
The percentage inhibition indicates the degree of decrease in protein content of urine of the medicine administered group as compared with the control group.

Chain of Plasmin (P00747 581-810 limits assumed, species assumed): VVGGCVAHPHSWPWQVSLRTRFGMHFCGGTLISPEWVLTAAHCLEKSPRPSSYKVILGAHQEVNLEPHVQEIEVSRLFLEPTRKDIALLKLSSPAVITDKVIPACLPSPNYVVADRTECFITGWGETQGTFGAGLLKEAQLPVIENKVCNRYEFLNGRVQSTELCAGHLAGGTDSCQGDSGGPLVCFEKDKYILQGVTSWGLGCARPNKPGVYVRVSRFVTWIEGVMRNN
Chain of Plasmin (P00747 97-580 limits assumed, species assumed): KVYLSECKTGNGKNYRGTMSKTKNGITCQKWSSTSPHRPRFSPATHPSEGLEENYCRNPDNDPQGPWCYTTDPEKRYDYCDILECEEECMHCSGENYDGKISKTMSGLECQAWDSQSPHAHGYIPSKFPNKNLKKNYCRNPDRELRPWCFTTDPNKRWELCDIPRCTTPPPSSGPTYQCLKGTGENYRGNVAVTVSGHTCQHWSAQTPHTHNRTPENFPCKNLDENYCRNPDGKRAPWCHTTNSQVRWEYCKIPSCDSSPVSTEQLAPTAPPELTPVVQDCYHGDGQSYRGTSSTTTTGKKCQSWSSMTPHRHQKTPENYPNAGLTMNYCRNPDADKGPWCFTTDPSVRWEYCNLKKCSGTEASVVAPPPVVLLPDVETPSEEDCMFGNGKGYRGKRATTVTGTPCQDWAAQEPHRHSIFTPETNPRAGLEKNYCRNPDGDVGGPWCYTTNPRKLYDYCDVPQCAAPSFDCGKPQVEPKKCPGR

SMILES | IC50 (Trypsin) [nM] | IC50 (Plasmin) [nM] | IC50 (Kallikrein) [nM] | IC50 (Thrombin) [nM] | IC50 (Clr) [nM] | IC50 (Cls) [nM] | Inhibition of complement mediated hemolysis (%) (complement; compound at 1 × 10^-4) | Inhibition of complement mediated hemolysis (%) (complement; compound at 1 × 10^-5) | Inhibition of complement mediated hemolysis (%) (complement; compound at 1 × 10^-6) | Inhibition of complement mediated hemolysis (%) (complement; compound at 1 × 10^-7) | LD50 ([1]; ip) [mg/kg] | LD50 ([1]; po) [mg/kg] | Percentage inhibition (decrease in protein content of urine) (Masugi nephritis; 5th day) [%] | Percentage inhibition (decrease in protein content of urine) (Masugi nephritis; 8th day) [%] | protein content of urine, Masugi nephritis (Masugi nephritis; result in words)
N=C(N)Nc1ccc(C(=O)Oc2ccc(C(=N)N)cc2[N+](=O)[O-])cc1 [Compound 70, 4-amidino-2-nitrophenyl 4-guanidinobenzoate] | 30 | 700 | 40000 | 500 | 3000 | 200 | 100 | 100 | 97.0 | 46.1 | 200 | 2500 | – | – | –
N=C(N)Nc1ccc(C(=O)Oc2ccc(C(=N)N)cc2C(=O)c2ccccc2)cc1 [Compound 69, 4-amidino-2-benzoylphenyl 4-guanidinobenzoate] | 80 | 2000 | 400 | 200 | 2000 | 400 | 100 | 99.6 | 86.5 | 7.2 | 192 | 1700 | 81 | 39 | distinctly decreased the protein content of urine
COc1cc(C(=N)N)ccc1OC(=O)[C@H]1CC[C@H](CNC(=O)OCc2ccccc2)CC1 [Compound 16] | 10000 | 300 | 5000 | 1000 | > 10000 | 800 | 91.2 | 61.8 | 17.4 | 3.4 | – | – | – | – | –
N=C(N)c1ccc(OC(=O)c2ccc(C=O)cc2)c(C(=O)c2ccccc2)c1 [Compound 52] | 3000 | 200 | > 10000 | 90 | 5000 | 3000 | 100 | 98.8 | 75.4 | 12.8 | – | – | – | – | –
COc1cc(C(=N)N)ccc1OC(=O)c1ccc(NC(=N)N)cc1 [Compound 71] | 40 | 2000 | 30000 | 2000 | 4000 | 700 | 90.6 | 35.3 | 2.7 | 9.0 | – | – | – | – | –
Cc1ccc(C(=O)Oc2ccc(C(=N)N)cc2[N+](=O)[O-])cc1 [Compound 37] | 50 | 400 | 700 | 300 | 40 | 60 | 95.9 | 37.3 | 16.0 | 0 | – | – | – | – | –
CC(=O)Oc1ccc(C=CC(=O)Oc2ccc(C(=N)N)cc2C(=O)c2ccccc2)cc1 [Compound 54, 4-amidino-2-benzoylphenyl 4-acetyloxycinnamate] | 20 | 300 | 400 | 90 | 2000 | 200 | 99.1 | 98.6 | 79.4 | 41.1 | – | – | – | – | –
N=C(N)c1ccc(OC(=O)c2ccccc2)c([N+](=O)[O-])c1 [Compound 27, 4-amidino-2-nitrophenyl benzoate] | 300 | 400 | 4000 | 100 | 500 | 200 | 100 | 100 | 95.5 | 26.2 | – | – | – | – | –
